# Laboratory results: paper PMC10134273 (Cancer Medicine, 2023)
# Test system: advanced solid tumors
# Test: Tumor response per RECIST v1.1
# Assay type: in vivo, human
# [1] = 40 mg BID (N=3) + pembrolizumab
# [2] = 60 mg BID (N=3) + pembrolizumab
# [3] = 80 mg BID (N=6) + pembrolizumab
# [4] = 80 mg BID group + pembrolizumab
# [5] = 100 mg BID (N=7) + pembrolizumab
# Method: Secondary endpoints included PK parameters (e.g., maximum observed concentration [C max] and area under the concentration‐time curve [AUC]). Secondary endpoints included objective response rate (ORR), disease control rate (DCR), and duration of response (DOR) as assessed by investigator per RECIST v1.1. Tumor responses were assessed according to RECIST v1.1; computerized tomography scanning or magnetic resonance imaging was performed every 6 weeks in the first 48 weeks, and every 12 weeks thereafter. Secondary endpoints also included safety and tolerability (adverse events [AEs] as defined by the National Cancer Institute‐Common Terminology Criteria for Adverse Events CTCAE v5.0) and exploratory biomarkers (total bile acids, 7‐α‐hydroxy‐4‐cholesten‐3‐one [C4] and circulating FGF19). Safety follow‐up visit was performed within 30 days (±5 days) and 90 days (±7 days) after the last dose of the study treatment.
# All patients who received at least one dose of the study treatment in the Phase 1 part of the study were included in the safety and efficacy analyses. Dose escalation and MTD assessment were primarily based on DLTs which occurred within the 28‐day observation period. Descriptive statistics were used for demographics, safety, and efficacy data. The number of patients who experienced DLTs (within and outside of the 28‐day DLT assessment period) was tabulated for each dose level. The sample size of patients required for dose escalation were determined based on the ‘3+3’ design and DLTs observed as the trial progressed.
compound,measurement,setting,value
"COCCNc1cc(NC(=O)N2CCCc3cc(CN4CCN(C)CC4=O)c(C=O)nc32)ncc1C#N [EVER4010001, roblitinib]",Best overall response: Complete response,[1],0 n (%)
same,Best overall response: Not evaluable,[1],0 n (%)
same,Best overall response: Partial response,[1],0 n (%)
same,Best overall response: Progressive disease,[1],1 (33.3) n (%)
same,Best overall response: Stable disease,[1],2 (66.7) n (%)
same,Disease control rate (CR+PR+SD),[1],2 (66.7) n (%)
same,Objective response (CR+PR),[1],0 n (%)
same,DCR,40 mg BID group + pembrolizumab,66.7%
same,Best overall response: Complete response,[2],0 n (%)
same,Best overall response: Not evaluable,[2],0 n (%)
same,Best overall response: Partial response,[2],0 n (%)
same,Best overall response: Progressive disease,[2],2 (66.7) n (%)
same,Best overall response: Stable disease,[2],1 (33.3) n (%)
same,Disease control rate (CR+PR+SD),[2],1 (33.3) n (%)
same,Objective response (CR+PR),[2],0 n (%)
same,DCR,60 mg BID group + pembrolizumab,33.3%
same,Best overall response: Complete response,[3],0 n (%)
same,Best overall response: Not evaluable,[3],1 (16.7) n (%)
same,Best overall response: Partial response,[3],1 (16.7) n (%)
same,Best overall response: Progressive disease,[3],2 (33.3) n (%)
same,Best overall response: Stable disease,[3],2 (33.3) n (%)
same,Disease control rate (CR+PR+SD),[3],3 (50.0) n (%)
same,Objective response (CR+PR),[3],1 (16.7) n (%)
same,DCR,[4],50%
same,ORR,[4],16.7%
same,Best overall response: Complete response,[5],0 n (%)
same,Best overall response: Not evaluable,[5],1 (14.3) n (%)
same,Best overall response: Partial response,[5],0 n (%)
same,Best overall response: Stable disease,[5],0 n (%)
same,Disease control rate (CR+PR+SD),[5],0 n (%)
same,Objective response (CR+PR),[5],0 n (%)
same,DCR,100 mg BID group + pembrolizumab,0%
same,ORR,"across all doses, + pembrolizumab",5.3%
